Results from patent US20140066449A1, “DIPYRIDINIUM DERIVATIVES” (SABREPHARM LIMITED, priority 2011, published 2014).
Where two headings read alike, the source gives them in different places.

Assays:
[1] = test system: A2780/cis [cisplatin ovarian resistant line]; assay: Combination with cisplatin, A2780/cis; assay type: cell-based
[2] = test system: MCF7 [Breast]; assay: Combination with cisplatin, MCF-7; assay type: cell-based, human
[3] = Redox potential study, square wave voltammetry; assay type: physicochemical; details: 0.1 mol dm-3 LiNTf2, 20° C., first scan
Procedure: BioAnalytical Systems CV50W potentiostat (from BAS Inc., USA)
Square wave voltammetry (4 mV step, 25 mV pulse, 10 Hz SW frequency)
3 mm diameter glassy carbon working electrode (from BAS)
3 mm diameter glassy carbon counter electrode (from BAS)
Saturated calomel reference electrode (SCE, from Sycopel Scientific Ltd., UK)
0.1 mol dm-3 lithium bis(trifluoromethanesulphonyl)imide ((LiNTf2)CAS 90076-65-6, from 3M)
Voltammograms were recorded from 0.5 V to −1.2 V in deoxygenated solutions of the Compounds.

[4] = test system: H460 non-small cell lung adenocarcinoma; assay: MTT in vitro cytotoxicity, H460; assay type: cell-based; details: Homo sapiens, NCI-H460, 240 h
Procedure: (§1) All were stored in the dark at 4° C. An accurately weighed amount of each compound was dissolved in DMSO and Hank's Balanced Salt Solution (Sigma) according to Table 2 below:
(§2) Further dilutions were made in complete RPMI1640 cell culture medium (RPMI1640 cell culture medium supplemented with 10% foetal bovine serum, 1 mM L-glutamine, and 2 mM sodium pyruvate (all from Sigma)).
(§3) H460 non-small cell lung adenocarcinoma, HT-29 colon adenocarcinoma and MCF-7 breast adenocarcinoma (ECACC, Salisbury, Wiltshire) were used for analysis. Cells were cultured in complete RPMI1640 cell culture medium, and maintained as monolayer cultures at 37° C. in a humidified 5% CO2 environment.
(§4) Tumour cell growth inhibition was assessed using the MTT assay with a standard 96 hour plus an extended 10 day incubation. For the 96 hour assay 1×10^4 cells were inoculated into each well of a 96-well plate and incubated overnight at 37° C. in a humidified atmosphere containing 5% CO2 to give time to adhere to the wells and form a monolayer. For the 10 day incubation, 1×102 (H460 and HT-29) and 1×103 (MCF-7) cells were inoculated. The next day, culture medium was removed from each well and replaced with cell culture media for the untreated control, or media containing compound, and the plates then incubated for a further 96 hours or 10 days. […] After 96 hours or 10 days culture medium was removed and 200 μL of 0.5 mgmL-1 MTT solution (Sigma) in complete medium added to each well. Following a further 4 hours incubation, the solution was removed from each well and 150 μL of DMSO added to solubilise the formazan crystals resulting from MTT conversion. Absorbance values for the resulting solutions were read at 550 nm on a Multiskan Ex microplate reader (Thermo Fisher, Loughborough, UK) and cell survival calculated as the absorbance of treated cells divided by the control. Results are expressed in terms of IC50 values (i.e. concentration of compound required to kill 50% of cells), which were determined manually in Microsoft Excel from plots of concentration versus percentage cell survival, and all experiments were performed in triplicate.

[5] = test system: human mitochondria isolated from HEK293 cells; assay: ROS production in isolated mitochondria (DCFDA); assay type: biochemical
Procedure: The ability of test compounds to impact ROS production in isolated mitochondria after 120 mins exposure was assessed.
Mitochondria were isolated from harvested human embryonic kidney (HEK293) cells (20×10^6) using a commercial kit (Thermo Scientific) before re-suspension in PBS to a final volume of 800 μL. […] Independent experiments (each assessing the impact of all four compounds along with a positive [AAPH; 5.0 mM] and vehicle control) were repeated three times.

[6] = test system: M 14 [melanoma]; assay: Combination with cisplatin, M14; assay type: cell-based
[7] = test system: MCF-7 breast adenocarcinoma; assay: MTT in vitro cytotoxicity, MCF-7; assay type: cell-based, human; details: Homo sapiens, MCF7, 240 h
Procedure: as §1, §2, §3, §4

[8] = test system: HT-29 colon adenocarcinoma; assay: MTT in vitro cytotoxicity, HT-29; assay type: cell-based; details: Homo sapiens
Procedure: as §1, §2, §3, §4

[9] = test system: A2780 [ovarian]; assay: Combination with cisplatin, A2780; assay type: cell-based
[10] = compound 1 μM + cisplatin 10 μM
[11] = compound 1 μM + cisplatin 30 μM
[12] = compound 1 μM + cisplatin 100 μM
[13] = compound 3 μM + cisplatin 10 μM
[14] = compound 3 μM + cisplatin 30 μM
[15] = compound 3 μM + cisplatin 100 μM
[16] = compound 10 μM + cisplatin 10 μM
[17] = compound 10 μM + cisplatin 30 μM
[18] = compound 10 μM + cisplatin 100 μM
[19] = compound 1 μM + cisplatin 0.1 μM
[20] = compound 1 μM + cisplatin 0.3 μM
[21] = compound 3 μM + cisplatin 0.1 μM
[22] = compound 3 μM + cisplatin 0.3 μM
[23] = compound 10 μM + cisplatin 0.1 μM
[24] = compound 10 μM + cisplatin 0.3 μM
[25] = compound 10 μM + cisplatin 1 μM
[26] = compound 10 μM + cisplatin 3 μM

OCc1ccc2[n+](c1)CC[n+]1ccccc1-2 [Compound B, 3-(hydroxymethyl)-6,7-dihydrodipyrido[1,2-a:2′,1′-c]pyrazine-5,8-diium bistrifluoromethanesulfonate]
% cell survival [1, 10]: 32.1%
% cell survival [1, 11]: 6.5%
% cell survival [1, 12]: 0%
% cell survival ([1]; compound 1 μM, cisplatin 0 μM): 74.4%
% cell survival [1, 13]: 24.2%
% cell survival [1, 14]: 8.1%
% cell survival [1, 15]: 3.3%
% cell survival ([1]; compound 3 μM, cisplatin 0 μM): 44.7%
% cell survival [1, 16]: 9%
% cell survival [1, 17]: 5%
% cell survival [1, 18]: 2.1%
% cell survival ([1]; compound 10 μM, cisplatin 0 μM): 15.4%
% cell survival [2, 19]: 87.3%
% cell survival [2, 20]: 77.9%
% cell survival ([2]; compound 1 μM + cisplatin 1 μM): 72.3%
% cell survival ([2]; compound 1 μM, cisplatin 0 μM): 76.2%
% cell survival [2, 21]: 81.4%
% cell survival [2, 22]: 73.2%
% cell survival ([2]; compound 3 μM + cisplatin 1 μM): 74.3%
% cell survival ([2]; compound 3 μM, cisplatin 0 μM): 69.1%
% cell survival [2, 23]: 63.7%
% cell survival [2, 24]: 51.7%
% cell survival [2, 25]: 46.3%
% cell survival ([2]; compound 10 μM, cisplatin 0 μM): 67.3%
Reduction potential 1 [3]: −0.460 V vs. SCE
Reduction potential 2 [3]: −0.932 V vs. SCE
IC50 ([4]; H460, 10 day exposure, highest concentration 30 μM, read-out: IC50 Run 1): 4.7 µM
IC50 ([4]; H460, 10 day exposure, highest concentration 100 μM, read-out: IC50 Run 2): 4.7 µM
IC50 ([4]; H460, 10 day exposure, highest concentration 100 μM, read-out: IC50 Run 3): 5 µM
IC50 ([4]; H460, 10 day exposure, mean of runs, read-out: IC50 Mean): 4.8 µM
rank order of efficacy (ROS production) ([5]; isolated HEK293 mitochondria, 100 μM, 120 mins): F>G>B>A
ROS production relative to vehicle treatment ([5]; isolated HEK293 mitochondria, 100 μM, 120 mins, room temperature): a more modest increase
% cell survival ([6]; compound 1 μM + cisplatin 1 μM): 88.4%
% cell survival ([6]; compound 1 μM + cisplatin 3 μM): 83.8%
% cell survival [6, 10]: 58.4%
% cell survival ([6]; compound 1 μM, cisplatin 0 μM): 93.2%
% cell survival ([6]; compound 3 μM + cisplatin 1 μM): 78.9%
% cell survival ([6]; compound 3 μM + cisplatin 3 μM): 72%
% cell survival [6, 13]: 47.1%
% cell survival ([6]; compound 3 μM, cisplatin 0 μM): 79.7%
% cell survival [6, 25]: 55.7%
% cell survival [6, 26]: 50.2%
% cell survival [6, 16]: 33.4%
% cell survival ([6]; compound 10 μM, cisplatin 0 μM): 59.2%
IC50 ([7]; MCF-7, 10 day exposure, highest concentration 30 μM, read-out: IC50 Run 1): 2.7 µM
IC50 ([7]; MCF-7, 10 day exposure, highest concentration 100 μM, read-out: IC50 Run 2): 2.3 µM
IC50 ([7]; MCF-7, 10 day exposure, highest concentration 100 μM, read-out: IC50 Run 3): 5.9 µM
IC50 ([7]; MCF-7, 10 day exposure, mean of runs, read-out: IC50 Mean): 3.6 µM
IC50 ([8]; 240 h, HT-29, 10 day exposure, highest concentration 30 μM, read-out: IC50 Run 1): 1.8 µM
IC50 ([8]; 240 h, HT-29, 10 day exposure, highest concentration 100 μM, read-out: IC50 Run 2): 1.2 µM
IC50 ([8]; 240 h, HT-29, 10 day exposure, highest concentration 100 μM, read-out: IC50 Run 3): 1.8 µM
IC50 ([8]; 240 h, HT-29, 10 day exposure, mean of runs, read-out: IC50 Mean): 1.6 µM
% cell survival ([9]; compound 1 μM + cisplatin 1 μM): 55.2%
% cell survival ([9]; compound 1 μM + cisplatin 3 μM): 20.3%
% cell survival [9, 10]: 5.5%
% cell survival ([9]; compound 1 μM, cisplatin 0 μM): 88.5%
% cell survival ([9]; compound 3 μM + cisplatin 1 μM): 46.3%
% cell survival ([9]; compound 3 μM + cisplatin 3 μM): 18.3%
% cell survival [9, 13]: 5.4%
% cell survival ([9]; compound 3 μM, cisplatin 0 μM): 59%
% cell survival [9, 25]: 20.4%
% cell survival [9, 26]: 11.7%
% cell survival [9, 16]: 3.9%
% cell survival ([9]; compound 10 μM, cisplatin 0 μM): 35.7%

O=S(=O)([O-])C(F)(F)F.O=S(=O)([O-])C(F)(F)F.c1cc[n+]2c(c1)-c1cccc[n+]1CC2 [Compound A, 6,7-dihydrodipyrido[1,2-a:2′,1′-c]pyrazine-5,8-diium bistrifluoromethanesulfonate]
% cell survival [1, 10]: 51.4%
% cell survival [1, 11]: 10%
% cell survival [1, 12]: −1.6%
% cell survival ([1]; compound 1 μM, cisplatin 0 μM): 77.8%
% cell survival [1, 13]: 31.9%
% cell survival [1, 14]: 10.2%
% cell survival [1, 15]: 1.9%
% cell survival ([1]; compound 3 μM, cisplatin 0 μM): 48.7%
% cell survival [1, 16]: 16.6%
% cell survival [1, 17]: 6%
% cell survival [1, 18]: 1.8%
% cell survival ([1]; compound 10 μM, cisplatin 0 μM): 29.4%
% cell survival [2, 19]: 96.4%
% cell survival [2, 20]: 69.4%
% cell survival ([2]; compound 1 μM + cisplatin 1 μM): 62%
% cell survival ([2]; compound 1 μM, cisplatin 0 μM): 109%
% cell survival [2, 21]: 80.9%
% cell survival [2, 22]: 64.8%
% cell survival ([2]; compound 3 μM + cisplatin 1 μM): 66.2%
% cell survival ([2]; compound 3 μM, cisplatin 0 μM): 95.1%
% cell survival [2, 23]: 52.8%
% cell survival [2, 24]: 39.6%
% cell survival [2, 25]: 32.6%
% cell survival ([2]; compound 10 μM, cisplatin 0 μM): 52.6%
Reduction potential 1 [3]: −0.444 V vs. SCE
Reduction potential 2 [3]: −0.944 V vs. SCE
IC50 ([4]; read-out: IC50 Mean): 5.4 µM
IC50 ([4]; read-out: IC50 Run 1): 5.2 µM
IC50 ([4]; read-out: IC50 Run 2): 5.5 µM
IC50 ([4]; read-out: IC50 Run 3): 5.4 µM
ROS production relative to vehicle treatment [5]: barely above vehicle levels
rank order of efficacy (ROS production) [5]: F>G>B>A
% cell survival ([6]; compound 1 μM + cisplatin 1 μM): 83.1%
% cell survival ([6]; compound 1 μM + cisplatin 3 μM): 71.3%
% cell survival [6, 10]: 57.9%
% cell survival ([6]; compound 1 μM, cisplatin 0 μM): 87%
% cell survival ([6]; compound 3 μM + cisplatin 1 μM): 75.8%
% cell survival ([6]; compound 3 μM + cisplatin 3 μM): 68%
% cell survival [6, 13]: 55.4%
% cell survival ([6]; compound 3 μM, cisplatin 0 μM): 80%
% cell survival [6, 25]: 49%
% cell survival [6, 26]: 44.4%
% cell survival [6, 16]: 36.4%
% cell survival ([6]; compound 10 μM, cisplatin 0 μM): 56.5%
IC50 ([7]; read-out: IC50 Mean): 5 µM
IC50 ([7]; read-out: IC50 Run 1): 2.7 µM
IC50 ([7]; read-out: IC50 Run 2): 5.4 µM
IC50 ([7]; read-out: IC50 Run 3): 6.8 µM
IC50 ([8]; HT-29, 240 h, read-out: IC50 Mean): 1.5 µM
IC50 ([8]; HT-29, 240 h, read-out: IC50 Run 1): 1.8 µM
IC50 ([8]; HT-29, 240 h, read-out: IC50 Run 2): 0.9 µM
IC50 ([8]; HT-29, 240 h, read-out: IC50 Run 3): 1.7 µM
% cell survival ([9]; compound 1 μM + cisplatin 1 μM): 58%
% cell survival ([9]; compound 1 μM + cisplatin 3 μM): 24.5%
% cell survival [9, 10]: 5.2%
% cell survival ([9]; compound 1 μM, cisplatin 0 μM): 90.5%
% cell survival ([9]; compound 3 μM + cisplatin 1 μM): 54.4%
% cell survival ([9]; compound 3 μM + cisplatin 3 μM): 22.3%
% cell survival [9, 13]: 5.3%
% cell survival ([9]; compound 3 μM, cisplatin 0 μM): 86.3%
% cell survival [9, 25]: 40.6%
% cell survival [9, 26]: 19%
% cell survival [9, 16]: 5.2%
% cell survival ([9]; compound 10 μM, cisplatin 0 μM): 66%
